Tested on: 422866-222-R5-J1-PDC complex spheroids viability
Experiment: Anticancer human tumor 422866-222-R5-J1-PDC patient-derived pancreatic adenocarcinoma cell line growth inhibition [RAS]
Settings: for IC50: curve of first compound; for viability, T/C: stronger effect = lower value; active = viability on the fitted dose curve at most 10% of control; inactive = the rest
In short: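 Multi-cell-type spheroids: tumor cells plus HUVEC endothelial cells and mesenchymal stem cells. RAS-pathway inhibitors were combined with targeted agents, each dosed in half-log steps down from clinical Cmax, or from 10 microM when Cmax was unknown.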

[1] = second compound 0.00316 µM, first compound 0.0316 µM
[2] = second compound 0.00316 µM, first compound 0.1 µM
[3] = second compound 0.00316 µM, first compound 0.316 µM
[4] = second compound 0.00316 µM, first compound 1 µM
[5] = second compound 0.00316 µM, first compound 3.16 µM
[6] = second compound 0.00316 µM, first compound 10 µM
[7] = second compound 0.01 µM, first compound 0.0316 µM
[8] = second compound 0.01 µM, first compound 0.1 µM
[9] = second compound 0.01 µM, first compound 0.316 µM
[10] = second compound 0.01 µM, first compound 1 µM
[11] = second compound 0.01 µM, first compound 3.16 µM
[12] = second compound 0.01 µM, first compound 10 µM
[13] = second compound 0.0316 µM, first compound 0.0316 µM
[14] = second compound 0.0316 µM, first compound 0.1 µM
[15] = second compound 0.0316 µM, first compound 0.316 µM
[16] = second compound 0.0316 µM, first compound 1 µM
[17] = second compound 0.0316 µM, first compound 3.16 µM
[18] = second compound 0.0316 µM, first compound 10 µM
[19] = second compound 0.1 µM, first compound 0.0316 µM
[20] = second compound 0.1 µM, first compound 0.1 µM
[21] = second compound 0.1 µM, first compound 0.316 µM
[22] = second compound 0.1 µM, first compound 1 µM
[23] = second compound 0.1 µM, first compound 3.16 µM
[24] = second compound 0.1 µM, first compound 10 µM
[25] = second compound 0.316 µM, first compound 0.0316 µM
[26] = second compound 0.316 µM, first compound 0.1 µM
[27] = second compound 0.316 µM, first compound 0.316 µM
[28] = second compound 0.316 µM, first compound 1 µM
[29] = second compound 0.316 µM, first compound 3.16 µM
[30] = second compound 0.316 µM, first compound 10 µM
[31] = second compound 1 µM, first compound 0.0316 µM
[32] = second compound 1 µM, first compound 0.1 µM
[33] = second compound 1 µM, first compound 0.316 µM
[34] = second compound 1 µM, first compound 1 µM
[35] = second compound 1 µM, first compound 3.16 µM
[36] = second compound 1 µM, first compound 10 µM
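Also: spheroids exposed to compounds for 7 days.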
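For viability, T/C in this document: 100% = DMSO vehicle control viability.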

CC(=O)OC12COC1CC(O)C1(C)C(=O)C(O)C3=C(C)C(OC(=O)C(O)C(NC(=O)OC(C)(C)C)c4ccccc4)CC(O)(C(OC(=O)c4ccccc4)C21)C3(C)C (centres undefined) + C=CC(=O)N1CCN(c2nc(OCC3CCCN3C)nc3c(F)c(-c4nc(N)cc(C)c4C(F)(F)F)c(Cl)cc23)C(C)C1
inactive: viability, T/C [1] 19.5% | viability, T/C [2] 21.1% | viability, T/C [3] 26.7% | viability, T/C [4] 22% | viability, T/C [5] 19.1% | viability, T/C [6] 26% | viability, T/C [7] 21.5% | viability, T/C [8] 20.8% | viability, T/C [9] 20.4% | viability, T/C [10] 17.6% | viability, T/C [11] 20.4% | viability, T/C [12] 19.6% | viability, T/C [13] 17.9% | viability, T/C [14] 20.8% | viability, T/C [15] 19.3% | viability, T/C [16] 17% | viability, T/C [17] 21.2% | viability, T/C [18] 20.9% | viability, T/C [19] 17.3% | viability, T/C [20] 21% | viability, T/C [21] 18.1% | viability, T/C [22] 19.2% | viability, T/C [23] 22.5% | viability, T/C [24] 22.5% | viability, T/C [25] 15.3% | viability, T/C [26] 17.8% | viability, T/C [27] 19.5% | viability, T/C [28] 17.6% | viability, T/C [29] 18.4% | viability, T/C [30] 23.3% | viability, T/C [31] 16.6% | viability, T/C [32] 17.7% | viability, T/C [33] 22.7% | viability, T/C [34] 20% | viability, T/C [35] 22.3% | viability, T/C [36] 22.6%
< 31.6 nM: IC50 (second compound 0.00316 µM) | IC50 (second compound 0.01 µM) | IC50 (second compound 0.0316 µM) | IC50 (second compound 0.1 µM) | IC50 (second compound 0.316 µM) | IC50 (second compound 1 µM)

CCC(CC)c1cc(NC2CCC(N)C2)n2nccc2n1 (centres undefined) + C=CC(=O)N1CCN(c2nc(OCC3CCCN3C)nc3c(F)c(-c4nc(N)cc(C)c4C(F)(F)F)c(Cl)cc23)C(C)C1
< 31.6 nM: IC50 (second compound 0.00316 µM) | IC50 (second compound 0.01 µM) | IC50 (second compound 0.0316 µM) | IC50 (second compound 0.1 µM) | IC50 (second compound 0.316 µM) | IC50 (second compound 1 µM)
inactive: viability, T/C [1] 25.9% | viability, T/C [2] 36.1% | viability, T/C [3] 32.8% | viability, T/C [4] 30.5% | viability, T/C [5] 9.42% | viability, T/C [6] 32.1% | viability, T/C [7] 36.9% | viability, T/C [8] 26.8% | viability, T/C [9] 30.6% | viability, T/C [10] 28.9% | viability, T/C [11] 8.11% | viability, T/C [12] 33.1% | viability, T/C [13] 38.8% | viability, T/C [14] 34.4% | viability, T/C [15] 26.6% | viability, T/C [16] 27.2% | viability, T/C [17] 8.27% | viability, T/C [18] 31.5% | viability, T/C [19] 19.1% | viability, T/C [20] 24.1% | viability, T/C [21] 24.2% | viability, T/C [22] 25.6% | viability, T/C [23] 6.99% | viability, T/C [24] 35.6% | viability, T/C [25] 19.3% | viability, T/C [26] 22.3% | viability, T/C [27] 27.6% | viability, T/C [28] 25.3% | viability, T/C [29] 7.15% | viability, T/C [30] 36.3% | viability, T/C [31] 19.6% | viability, T/C [32] 22.8% | viability, T/C [33] 28.9% | viability, T/C [34] 27.1% | viability, T/C [35] 9.75% | viability, T/C [36] 41.1%
